Test results published in US10689354B2, “Aminoazole derivative” (Teijin Pharma Limited, priority 2015, dated 2020).

How the values were obtained:
[1] = target: T1, human androgen receptor (Homo sapiens, UniProt P10275); test: Reporter assay of an androgen receptor responsive sequence (luciferase, transiently transfected HEK293 cells); type: cell-based; details: 24 hours incubation, relative to activity of 100 nM DHT, read-out: AR transcriptive activity (pEC50) (converted)
T1 construct: expressed in transfected cells; host or cells: HEK293
T1 sequence (P10275 1-920): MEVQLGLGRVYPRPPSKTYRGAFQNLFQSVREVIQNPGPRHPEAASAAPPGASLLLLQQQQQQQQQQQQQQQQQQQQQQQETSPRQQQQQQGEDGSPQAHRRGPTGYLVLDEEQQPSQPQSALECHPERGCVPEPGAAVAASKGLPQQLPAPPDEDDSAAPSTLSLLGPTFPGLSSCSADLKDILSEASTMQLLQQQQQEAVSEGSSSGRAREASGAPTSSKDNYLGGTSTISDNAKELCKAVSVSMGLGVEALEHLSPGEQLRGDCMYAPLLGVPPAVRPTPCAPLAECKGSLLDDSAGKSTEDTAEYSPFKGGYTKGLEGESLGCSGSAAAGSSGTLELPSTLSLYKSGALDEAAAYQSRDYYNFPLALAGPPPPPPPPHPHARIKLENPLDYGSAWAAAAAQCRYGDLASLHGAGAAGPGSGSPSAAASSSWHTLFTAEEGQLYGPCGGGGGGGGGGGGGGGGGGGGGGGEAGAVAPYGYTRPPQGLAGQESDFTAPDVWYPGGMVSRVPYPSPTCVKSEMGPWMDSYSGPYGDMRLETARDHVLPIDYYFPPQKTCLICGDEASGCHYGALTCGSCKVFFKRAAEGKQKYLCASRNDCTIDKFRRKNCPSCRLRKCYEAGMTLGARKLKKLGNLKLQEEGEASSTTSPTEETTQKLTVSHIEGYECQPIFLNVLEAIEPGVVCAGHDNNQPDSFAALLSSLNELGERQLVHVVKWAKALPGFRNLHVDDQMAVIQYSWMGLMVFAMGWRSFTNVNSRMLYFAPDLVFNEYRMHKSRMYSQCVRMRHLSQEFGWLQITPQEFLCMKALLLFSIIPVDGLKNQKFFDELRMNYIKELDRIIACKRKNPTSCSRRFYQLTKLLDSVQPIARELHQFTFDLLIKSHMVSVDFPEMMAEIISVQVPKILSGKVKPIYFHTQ
Outline: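 Agonism scored as pEC50, fitted by 4-parameter curve against the response to 100 nM DHT, from dual-luciferase readout after 24 h compound treatment. Cells were HEK293 co-transfected (3 h) with human AR expression vector, androgen-responsive firefly reporter and Renilla control, in charcoal-stripped serum.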

[2] = target: T2, androgen receptor (AR-LBD) (Rattus norvegicus, UniProt P15207); test: Evaluation of androgen receptor affinity (PolarScreen Androgen Receptor Competitor Assay Kit, Red; fluorescence polarization); details: 22° C. for 5 hours, relative to binding rate of 1 μM DHT, read-out: AR affinity (pEC50) (converted)
T2 construct: 5 μL of 2×AR-LBD/Fluoromone AL Red Complex contained in the kit; purchased Invitrogen
T2 sequence (P15207 651-882 limits assumed): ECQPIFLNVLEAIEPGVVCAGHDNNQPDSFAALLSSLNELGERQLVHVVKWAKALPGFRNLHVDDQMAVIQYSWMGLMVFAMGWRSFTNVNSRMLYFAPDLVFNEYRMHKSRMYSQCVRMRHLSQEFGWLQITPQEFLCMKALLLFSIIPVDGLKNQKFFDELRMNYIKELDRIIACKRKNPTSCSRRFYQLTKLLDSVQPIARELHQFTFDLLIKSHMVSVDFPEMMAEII
Outline: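 Test compound and the 2× AR-LBD/Fluoromone AL Red complex were combined in duplicate wells. After reacting 5 h at 22° C, polarization was measured. pEC50 was derived by 4-parameter fitting, normalizing to binding obtained with 1 μM dihydrotestosterone.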

SMILES | EC50 [1] [nM] | EC50 [2] [nM]
Cc1sc(N(Cc2ccc3nsnc3c2)c2ccc(C#N)cc2)nc1C(=O)NS(C)(=O)=O [Compound 114, 2-[N-(2,1,3-benzothiadiazole-5-ylmethyl)-4-cyano-anilino]-5-methyl-N-methylsulfonyl-thiazole-4-carboxamide] | 158 | 126
Cc1sc(N(Cc2ccc(F)c(Cl)c2)c2ccc(C#N)cc2)nc1C(=O)NS(C)(=O)=O [Compound 117, 2-[N-[(3-chloro-4-fluoro-phenyl)methyl]-4-cyano-anilino]-5-methyl-N-methylsulfonyl-thiazole-4-carboxamide] | 63.1 | 25.1
Cc1sc(N(Cc2ccc(OC(F)(F)F)cc2)c2ccc(C#N)cc2)nc1C(=O)NS(=O)(=O)Cc1cccnc1 [Compound 121, 2-[4-cyano-N-[[4-(trifluoromethoxy)phenyl]methyl]anilino]-5-methyl-N-(3-pyridylmethylsulfonyl)thiazole-4-carboxamide] | 50.1 | 25.1
Cc1sc(N(Cc2ccc(F)cc2)c2ccc(C#N)cc2)nc1C(=O)NS(=O)(=O)Cc1cccnc1 [Compound 122, 2-[4-cyano-N-[(4-fluorophenyl)methyl]anilino]-5-methyl-N-(3-pyridylmethylsulfonyl)thiazole-4-carboxamide] | 20 | 25.1
Cc1sc(N(Cc2c(F)cccc2F)c2ccc(C#N)cc2)nc1C(=O)NS(C)(=O)=O [Compound 124, 2-[4-cyano-N-[(2,6-difluorophenyl)methyl]anilino]-5-methyl-N-methylsulfonyl-thiazole-4-carboxamide] | 631 | 63.1
Cc1sc(N(Cc2cc(F)c(F)c(F)c2)c2ccc(C#N)cc2)nc1C(=O)NS(C)(=O)=O [Compound 125, 2-[4-cyano-N-[(3,4,5-trifluorophenyl)methyl]anilino]-5-methyl-N-methylsulfonyl-thiazole-4-carboxamide] | 126 | 31.6
Cc1sc(N(Cc2cc(Cl)ccc2F)c2ccc(C#N)cc2)nc1C(=O)NS(C)(=O)=O [Compound 126, 2-[N-[(5-chloro-2-fluoro-phenyl)methyl]-4-cyano-anilino]-5-methyl-N-methylsulfonyl-thiazole-4-carboxamide] | 794 | 63.1
Cc1sc(N(Cc2ccc3c(c2)OCO3)c2ccc(C#N)cc2)nc1C(=O)NS(C)(=O)=O [Compound 128, 2-[N-(1,3-benzodioxol-5-ylmethyl)-4-cyano-anilino]-5-methyl-N-methylsulfonyl-thiazole-4-carboxamide] | 100 | 39.8
Cc1sc(N(Cc2ccc(Br)cc2)c2ccc(C#N)cc2)nc1C(=O)NS(C)(=O)=O [Compound 129, 2-[N-[(4-bromophenyl)methyl]-4-cyano-anilino]-5-methyl-N-methylsulfonyl-thiazole-4-carboxamide] | 20 | 39.8
Cc1sc(N(CCc2cccs2)c2ccc(C#N)cc2)nc1C(=O)NS(C)(=O)=O [Compound 131, 2-[4-cyano-N-[2-(2-thienyl)ethyl]anilino]-5-methyl-N-methylsulfonyl-thiazole-4-carboxamide] | 1000 | 251
Cc1sc(N(CCc2ccsc2)c2ccc(C#N)cc2)nc1C(=O)NS(C)(=O)=O [Compound 132, 2-[4-cyano-N-[2-(3-thienyl)ethyl]anilino]-5-methyl-N-methylsulfonyl-thiazole-4-carboxamide] | 1580 | 316
Cc1sc(N(Cc2ccc3c(c2)C(=O)CCO3)c2ccc(C#N)cc2)nc1C(=O)NS(C)(=O)=O [Compound 138, 2-[4-cyano-N-[(4-oxochroman-6-yl)methyl]anilino]-5-methyl-N-methylsulfonyl-thiazole-4-carboxamide] | 251 | 100
Cc1sc(N(CCc2cccc(Cl)c2)c2ccc(C#N)cc2)nc1C(=O)NS(C)(=O)=O [Compound 139, 2-[N-[2-(3-chlorophenyl)ethyl]-4-cyano-anilino]-5-methyl-N-methylsulfonyl-thiazole-4-carboxamide] | 1580 | 79.4
Cc1sc(N(Cc2ccc(-c3ccc(F)cc3)cc2)c2ccc(C#N)cc2)nc1C(=O)NS(C)(=O)=O [Compound 141, 2-[4-cyano-N-[[4-(4-fluorophenyl)phenyl]methyl]anilino]-5-methyl-N-methylsulfonyl-thiazole-4-carboxamide] | 316 | 50.1
Cc1sc(N(CCc2ccc(Cl)cc2)Cc2cccc(F)c2)nc1C(=O)NS(C)(=O)=O [Compound 143, 2-[2-(4-chlorophenyl)ethyl-[(3-fluorophenyl)methyl]amino]-5-methyl-N-methylsulfonyl-thiazole-4-carboxamide] | 50.1 | 25.1

Second part, the compound after the results:

EC50 [1] [nM] | EC50 [2] [nM] | SMILES
158 | 25.1 | Cc1sc(N(Cc2ccc(SC(F)(F)F)cc2)c2ccc(C#N)cc2)nc1C(=O)NS(C)(=O)=O [Compound 113, 2-[4-cyano-N-[[4-(trifluoromethylsulfanyl)phenyl]methyl]anilino]-5-methyl-N-methylsulfonyl-thiazole-4-carboxamide]
31.6 | 31.6 | Cc1ccc(CN(c2ccc(C#N)cc2)c2nc(C(=O)NS(C)(=O)=O)c(C)s2)cc1F [Compound 115, 2-[4-cyano-N-[(3-fluoro-4-methyl-phenyl)methyl]anilino]-5-methyl-N-methylsulfonyl-thiazole-4-carboxamide]
25.1 | 31.6 | Cc1sc(N(Cc2ccc(Cl)c(F)c2)c2ccc(C#N)cc2)nc1C(=O)NS(C)(=O)=O [Compound 116, 2-[N-[(4-chloro-3-fluoro-phenyl)methyl]-4-cyano-anilino]-5-methyl-N-methylsulfonyl-thiazole-4-carboxamide]
398 | 50.1 | COc1cc(Cl)ccc1CN(c1ccc(C#N)cc1)c1nc(C(=O)NS(C)(=O)=O)c(C)s1 [Compound 118, 2-[N-[(4-chloro-2-methoxy-phenyl)methyl]-4-cyano-anilino]-5-methyl-N-methylsulfonyl-thiazole-4-carboxamide]
100 | 50.1 | Cc1sc(N(Cc2ccc3c(c2)OCCO3)c2ccc(C#N)cc2)nc1C(=O)NS(C)(=O)=O [Compound 123, 2-[4-cyano-N-(2,3-dihydro-1,4-benzodioxin-6-ylmethyl)anilino]-5-methyl-N-methylsulfonyl-thiazole-4-carboxamide]
1580 | 158 | Cc1sc(N(CCc2ccc(Cl)cc2)c2ccc(C#N)cc2)nc1C(=O)NS(C)(=O)=O [Compound 133, 2-[N-[2-(4-chlorophenyl)ethyl]-4-cyano-anilino]-5-methyl-N-methylsulfonyl-thiazole-4-carboxamide]
794 | 100 | Cc1sc(N(CCc2ccccc2Cl)c2ccc(C#N)cc2)nc1C(=O)NS(C)(=O)=O [Compound 140, 2-[N-[2-(2-chlorophenyl)ethyl]-4-cyano-anilino]-5-methyl-N-methylsulfonyl-thiazole-4-carboxamide]
63.1 | 25.1 | Cc1sc(N(CCc2ccc(Cl)cc2)Cc2cccc(Cl)c2)nc1C(=O)NS(C)(=O)=O [Compound 144, 2-[2-(4-chlorophenyl)ethyl-[(3-chlorophenyl)methyl]amino]-5-methyl-N-methylsulfonyl-thiazole-4-carboxamide]
